Assays:
[1] = target: Dual specificity tyrosine-phosphorylation-regulated kinase 4 (Homo sapiens) (UniProt Q9NR20); test: Inhibition of DYRK4 (unknown origin) at 10 uM after 120 mins P33 radiolabeled kinase activity assay
[2] = target: Serine/threonine-protein kinase Nek6 (Homo sapiens) (UniProt Q9HC98); test: Inhibition of NEK6 (unknown origin) at 10 uM after 120 mins P33 radiolabeled kinase activity assay
[3] = target: Serine/threonine-protein kinase Nek7 (Homo sapiens) (UniProt Q8TDX7); test: Inhibition of NEK7 (unknown origin) at 10 uM after 120 mins P33 radiolabeled kinase activity assay
[4] = target: Serine/threonine-protein kinase PAK 1 (Homo sapiens) (UniProt Q13153); test: Inhibition of PAK1 (unknown origin) at 10 uM after 120 mins P33 radiolabeled kinase activity assay
[5] = target: Lymphokine-activated killer T-cell-originated protein kinase (Homo sapiens) (UniProt Q96KB5); test: Inhibition of PBK (unknown origin) at 10 uM after 120 mins P33 radiolabeled kinase activity assay
[6] = target: Interleukin-1 receptor-associated kinase 4 (Homo sapiens) (UniProt Q9NWZ3); test: Inhibition of IRAK4 (unknown origin) at 10 uM after 120 mins P33 radiolabeled kinase activity assay
[7] = target: Tyrosine-protein kinase JAK3 (Homo sapiens) (UniProt P52333); test: Inhibition of JAK3 (unknown origin) at 10 uM after 120 mins P33 radiolabeled kinase activity assay
[8] = target: Serine/threonine-protein kinase 24 (Homo sapiens) (UniProt Q9Y6E0); test: Inhibition of MST3 (unknown origin) at 10 uM after 120 mins P33 radiolabeled kinase activity assay
[9] = target: Testis-specific serine/threonine-protein kinase 6 (Homo sapiens) (UniProt Q9BXA6); test: Inhibition of SSTK (unknown origin) at 10 uM after 120 mins P33 radiolabeled kinase activity assay
[10] = target: Serine/threonine-protein kinase 25 (Homo sapiens) (UniProt O00506); test: Inhibition of STK25 (unknown origin) at 10 uM after 120 mins P33 radiolabeled kinase activity assay
[11] = target: Serine/threonine-protein kinase tousled-like 1 (Homo sapiens) (UniProt Q9UKI8); test: Inhibition of TLK1 (unknown origin) at 10 uM after 120 mins P33 radiolabeled kinase activity assay
[12] = target: Serine/threonine-protein kinase VRK2 (Homo sapiens) (UniProt Q86Y07); test: Inhibition of VRK2 (unknown origin) at 10 uM after 120 mins P33 radiolabeled kinase activity assay
[13] = target: Serine/threonine-protein kinase WNK1 (Homo sapiens) (UniProt Q9H4A3); test: Inhibition of WNK1 (unknown origin) at 10 uM after 120 mins P33 radiolabeled kinase activity assay
[14] = target: RAC-gamma serine/threonine-protein kinase (Homo sapiens) (UniProt Q9Y243); test: Inhibition of AKT3 (unknown origin) at 10 uM after 120 mins P33 radiolabeled kinase activity assay
[15] = target: Calcium/calmodulin-dependent protein kinase type II subunit alpha (Homo sapiens) (UniProt Q9UQM7); test: Inhibition of CAMK2alpha (unknown origin) at 10 uM after 120 mins P33 radiolabeled kinase activity assay
[16] = target: Calcium/calmodulin-dependent protein kinase kinase 1 (Homo sapiens) (UniProt Q8N5S9); test: Inhibition of CAMKK1 (unknown origin) at 10 uM after 120 mins P33 radiolabeled kinase activity assay
[17] = target: Casein kinase II subunit alpha' (Homo sapiens) (UniProt P19784); test: Inhibition of CK2alpha2 (unknown origin) at 10 uM after 120 mins P33 radiolabeled kinase activity assay
[18] = target: Megakaryocyte-associated tyrosine-protein kinase (Homo sapiens) (UniProt P42679); test: Inhibition of CTK (unknown origin) at 10 uM after 120 mins P33 radiolabeled kinase activity assay
[19] = target: Mitogen-activated protein kinase 10 (Homo sapiens) (UniProt P53779); test: Inhibition of JNK3 (unknown origin) at 10 uM after 120 mins P33 radiolabeled kinase activity assay
[20] = target: Serine/threonine-protein kinase ICK (Homo sapiens) (UniProt Q9UPZ9); test: Inhibition of LCK2 (unknown origin) at 10 uM after 120 mins P33 radiolabeled kinase activity assay
[21] = target: Dual specificity mitogen-activated protein kinase kinase 1 (Homo sapiens) (UniProt Q02750); test: Inhibition of MEK1 (unknown origin) at 10 uM after 120 mins P33 radiolabeled kinase activity assay
[22] = target: Rho-associated protein kinase 1 (Homo sapiens) (UniProt Q13464); test: Inhibition of ROCK1 (unknown origin) at 10 uM after 120 mins P33 radiolabeled kinase activity assay
[23] = target: Dual specificity mitogen-activated protein kinase kinase 4 (Homo sapiens) (UniProt P45985); test: Inhibition of MKK4 (unknown origin) at 10 uM after 120 mins P33 radiolabeled kinase activity assay
[24] = target: Dual specificity mitogen-activated protein kinase kinase 6 (Homo sapiens) (UniProt P52564); test: Inhibition of MKK6 (unknown origin) at 10 uM after 120 mins P33 radiolabeled kinase activity assay
[25] = target: SRSF protein kinase 3 (Homo sapiens) (UniProt Q9UPE1); test: Inhibition of MSSK1 (unknown origin) at 10 uM after 120 mins P33 radiolabeled kinase activity assay
[26] = target: Serine/threonine-protein kinase Sgk2 (Homo sapiens) (UniProt Q9HBY8); test: Inhibition of SGK2 (unknown origin) at 10 uM after 120 mins P33 radiolabeled kinase activity assay
[27] = target: Serine/threonine-protein kinase tousled-like 2 (Homo sapiens) (UniProt Q86UE8); test: Inhibition of TLK2 (unknown origin) at 10 uM after 120 mins P33 radiolabeled kinase activity assay
[28] = target: Bone morphogenetic protein receptor type-1B (Homo sapiens) (UniProt O00238); test: Inhibition of ALK6 (unknown origin) at 10 uM after 120 mins P33 radiolabeled kinase activity assay
[29] = target: Mitogen-activated protein kinase kinase kinase 21 (Homo sapiens) (UniProt Q5TCX8); test: Inhibition of MLK4 (unknown origin) at 10 uM after 120 mins P33 radiolabeled kinase activity assay
[30] = target: Bone morphogenetic protein receptor type-2 (Homo sapiens) (UniProt Q13873); test: Inhibition of BMPR2 (unknown origin) at 10 uM after 120 mins P33 radiolabeled kinase activity assay
[31] = target: Calcium/calmodulin-dependent protein kinase kinase 2 (Homo sapiens) (UniProt Q96RR4); test: Inhibition of CAMKK2 (unknown origin) at 10 uM after 120 mins P33 radiolabeled kinase activity assay
[32] = target: CDK4/Cyclin D3 (Homo sapiens) (UniProt P11802+P30281); test: Inhibition of CDK4/cyclin D3 (unknown origin) at 10 uM after 120 mins P33 radiolabeled kinase activity assay; format: protein-complex assay
[33] = target: Mitogen-activated protein kinase kinase kinase 8 (Homo sapiens) (UniProt P41279); test: Inhibition of COT1 (unknown origin) at 10 uM after 120 mins P33 radiolabeled kinase activity assay
[34] = target: Wee1-like protein kinase (Homo sapiens) (UniProt P30291); test: Inhibition of WEE1 (unknown origin) at 10 uM after 120 mins P33 radiolabeled kinase activity assay

SRSF protein kinase 3 (Homo sapiens), sequence (Q9UPE1 whole entry): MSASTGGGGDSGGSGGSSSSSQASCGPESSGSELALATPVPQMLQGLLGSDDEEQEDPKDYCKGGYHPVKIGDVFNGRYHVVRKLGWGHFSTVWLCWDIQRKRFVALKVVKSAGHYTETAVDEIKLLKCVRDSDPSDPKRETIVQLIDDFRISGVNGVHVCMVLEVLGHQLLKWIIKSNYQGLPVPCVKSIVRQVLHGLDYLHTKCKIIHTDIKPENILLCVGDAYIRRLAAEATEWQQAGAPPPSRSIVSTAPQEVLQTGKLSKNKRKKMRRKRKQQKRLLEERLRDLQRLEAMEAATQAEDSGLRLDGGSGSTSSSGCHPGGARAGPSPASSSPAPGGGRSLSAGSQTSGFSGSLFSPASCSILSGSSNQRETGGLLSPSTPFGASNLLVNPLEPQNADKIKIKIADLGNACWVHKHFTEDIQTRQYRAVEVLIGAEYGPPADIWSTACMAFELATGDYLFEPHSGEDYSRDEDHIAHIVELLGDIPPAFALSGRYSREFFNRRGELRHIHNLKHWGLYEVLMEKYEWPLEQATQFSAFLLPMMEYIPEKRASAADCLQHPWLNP
Bone morphogenetic protein receptor type-2 (Homo sapiens), sequence (Q13873 whole entry): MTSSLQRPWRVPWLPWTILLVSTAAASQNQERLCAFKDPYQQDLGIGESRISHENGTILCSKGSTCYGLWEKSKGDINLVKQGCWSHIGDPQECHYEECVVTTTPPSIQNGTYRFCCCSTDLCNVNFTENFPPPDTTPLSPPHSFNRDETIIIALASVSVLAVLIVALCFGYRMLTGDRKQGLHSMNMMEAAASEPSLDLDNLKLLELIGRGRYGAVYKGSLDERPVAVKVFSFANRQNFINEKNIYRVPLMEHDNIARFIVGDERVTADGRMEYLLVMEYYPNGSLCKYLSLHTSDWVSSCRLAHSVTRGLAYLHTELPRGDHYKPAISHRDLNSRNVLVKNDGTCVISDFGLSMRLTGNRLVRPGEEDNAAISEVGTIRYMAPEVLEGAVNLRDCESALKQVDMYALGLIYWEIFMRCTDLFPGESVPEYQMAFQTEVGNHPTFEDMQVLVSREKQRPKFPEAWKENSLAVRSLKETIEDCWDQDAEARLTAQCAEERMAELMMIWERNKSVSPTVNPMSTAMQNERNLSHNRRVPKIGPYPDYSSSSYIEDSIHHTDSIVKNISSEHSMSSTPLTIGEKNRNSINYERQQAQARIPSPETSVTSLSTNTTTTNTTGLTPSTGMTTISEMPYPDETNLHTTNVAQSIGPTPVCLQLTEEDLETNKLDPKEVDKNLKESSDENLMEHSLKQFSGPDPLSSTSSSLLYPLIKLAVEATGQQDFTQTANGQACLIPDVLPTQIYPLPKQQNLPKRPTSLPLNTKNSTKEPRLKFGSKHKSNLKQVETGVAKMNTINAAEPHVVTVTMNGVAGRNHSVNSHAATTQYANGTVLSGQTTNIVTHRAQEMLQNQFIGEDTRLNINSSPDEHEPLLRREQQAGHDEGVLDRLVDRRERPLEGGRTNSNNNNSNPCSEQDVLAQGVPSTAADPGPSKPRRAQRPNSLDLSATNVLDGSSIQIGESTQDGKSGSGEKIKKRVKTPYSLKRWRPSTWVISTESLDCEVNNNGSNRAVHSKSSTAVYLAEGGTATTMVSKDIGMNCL
Calcium/calmodulin-dependent protein kinase type II subunit alpha (Homo sapiens), sequence (Q9UQM7 whole entry): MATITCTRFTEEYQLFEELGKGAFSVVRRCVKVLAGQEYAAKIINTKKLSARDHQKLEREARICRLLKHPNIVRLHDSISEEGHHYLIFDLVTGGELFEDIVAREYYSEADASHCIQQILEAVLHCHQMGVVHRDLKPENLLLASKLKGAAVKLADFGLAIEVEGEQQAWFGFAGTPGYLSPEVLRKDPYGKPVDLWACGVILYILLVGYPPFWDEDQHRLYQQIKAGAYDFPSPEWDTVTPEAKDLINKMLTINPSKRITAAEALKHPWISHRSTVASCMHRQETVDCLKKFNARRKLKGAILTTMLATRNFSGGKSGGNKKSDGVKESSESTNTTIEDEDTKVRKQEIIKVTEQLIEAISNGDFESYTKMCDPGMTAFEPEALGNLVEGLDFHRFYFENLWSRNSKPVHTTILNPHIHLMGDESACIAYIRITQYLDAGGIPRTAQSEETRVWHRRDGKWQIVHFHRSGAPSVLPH
Tyrosine-protein kinase JAK3 (Homo sapiens), sequence (P52333 whole entry): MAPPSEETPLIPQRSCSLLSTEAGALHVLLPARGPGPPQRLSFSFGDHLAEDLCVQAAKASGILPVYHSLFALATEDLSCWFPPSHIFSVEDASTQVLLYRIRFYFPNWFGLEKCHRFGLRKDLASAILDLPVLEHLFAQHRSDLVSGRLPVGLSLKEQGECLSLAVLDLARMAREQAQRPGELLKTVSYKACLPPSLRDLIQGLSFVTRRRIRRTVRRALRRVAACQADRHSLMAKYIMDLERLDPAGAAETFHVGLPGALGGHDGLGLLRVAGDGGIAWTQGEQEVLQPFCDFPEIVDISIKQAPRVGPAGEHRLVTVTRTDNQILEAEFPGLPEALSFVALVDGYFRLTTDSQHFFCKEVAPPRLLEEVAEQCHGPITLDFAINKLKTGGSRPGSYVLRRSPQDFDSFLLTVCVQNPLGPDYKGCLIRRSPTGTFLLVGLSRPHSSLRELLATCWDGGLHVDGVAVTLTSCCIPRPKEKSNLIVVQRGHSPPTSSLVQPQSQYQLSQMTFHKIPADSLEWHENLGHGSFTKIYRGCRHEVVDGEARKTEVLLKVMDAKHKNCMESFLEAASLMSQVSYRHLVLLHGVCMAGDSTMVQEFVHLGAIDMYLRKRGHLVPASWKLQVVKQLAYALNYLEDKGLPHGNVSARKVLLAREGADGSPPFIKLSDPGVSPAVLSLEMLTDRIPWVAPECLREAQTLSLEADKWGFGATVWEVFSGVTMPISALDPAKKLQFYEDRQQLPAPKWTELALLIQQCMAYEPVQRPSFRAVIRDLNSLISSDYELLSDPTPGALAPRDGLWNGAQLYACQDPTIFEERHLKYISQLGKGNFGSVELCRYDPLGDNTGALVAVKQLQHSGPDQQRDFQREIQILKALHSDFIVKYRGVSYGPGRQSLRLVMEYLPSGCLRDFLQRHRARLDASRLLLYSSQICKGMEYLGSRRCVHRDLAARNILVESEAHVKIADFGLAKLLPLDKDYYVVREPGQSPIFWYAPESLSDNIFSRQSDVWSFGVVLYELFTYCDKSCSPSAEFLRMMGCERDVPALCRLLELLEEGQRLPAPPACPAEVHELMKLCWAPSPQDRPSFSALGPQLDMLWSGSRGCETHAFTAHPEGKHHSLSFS
Interleukin-1 receptor-associated kinase 4 (Homo sapiens), sequence (Q9NWZ3 whole entry): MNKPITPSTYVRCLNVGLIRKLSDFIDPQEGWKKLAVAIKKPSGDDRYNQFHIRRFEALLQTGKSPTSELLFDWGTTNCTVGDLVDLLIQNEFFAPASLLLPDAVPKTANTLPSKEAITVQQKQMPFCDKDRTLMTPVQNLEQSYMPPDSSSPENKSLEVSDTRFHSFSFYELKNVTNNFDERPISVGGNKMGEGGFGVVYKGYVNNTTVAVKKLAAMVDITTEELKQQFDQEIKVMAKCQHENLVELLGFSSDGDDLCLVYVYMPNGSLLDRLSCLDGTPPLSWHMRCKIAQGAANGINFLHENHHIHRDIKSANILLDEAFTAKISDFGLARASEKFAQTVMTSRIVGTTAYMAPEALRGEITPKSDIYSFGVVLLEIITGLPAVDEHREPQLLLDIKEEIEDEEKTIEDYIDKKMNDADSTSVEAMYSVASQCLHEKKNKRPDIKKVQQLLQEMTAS
Rho-associated protein kinase 1 (Homo sapiens), sequence (Q13464 2-1354 limits assumed): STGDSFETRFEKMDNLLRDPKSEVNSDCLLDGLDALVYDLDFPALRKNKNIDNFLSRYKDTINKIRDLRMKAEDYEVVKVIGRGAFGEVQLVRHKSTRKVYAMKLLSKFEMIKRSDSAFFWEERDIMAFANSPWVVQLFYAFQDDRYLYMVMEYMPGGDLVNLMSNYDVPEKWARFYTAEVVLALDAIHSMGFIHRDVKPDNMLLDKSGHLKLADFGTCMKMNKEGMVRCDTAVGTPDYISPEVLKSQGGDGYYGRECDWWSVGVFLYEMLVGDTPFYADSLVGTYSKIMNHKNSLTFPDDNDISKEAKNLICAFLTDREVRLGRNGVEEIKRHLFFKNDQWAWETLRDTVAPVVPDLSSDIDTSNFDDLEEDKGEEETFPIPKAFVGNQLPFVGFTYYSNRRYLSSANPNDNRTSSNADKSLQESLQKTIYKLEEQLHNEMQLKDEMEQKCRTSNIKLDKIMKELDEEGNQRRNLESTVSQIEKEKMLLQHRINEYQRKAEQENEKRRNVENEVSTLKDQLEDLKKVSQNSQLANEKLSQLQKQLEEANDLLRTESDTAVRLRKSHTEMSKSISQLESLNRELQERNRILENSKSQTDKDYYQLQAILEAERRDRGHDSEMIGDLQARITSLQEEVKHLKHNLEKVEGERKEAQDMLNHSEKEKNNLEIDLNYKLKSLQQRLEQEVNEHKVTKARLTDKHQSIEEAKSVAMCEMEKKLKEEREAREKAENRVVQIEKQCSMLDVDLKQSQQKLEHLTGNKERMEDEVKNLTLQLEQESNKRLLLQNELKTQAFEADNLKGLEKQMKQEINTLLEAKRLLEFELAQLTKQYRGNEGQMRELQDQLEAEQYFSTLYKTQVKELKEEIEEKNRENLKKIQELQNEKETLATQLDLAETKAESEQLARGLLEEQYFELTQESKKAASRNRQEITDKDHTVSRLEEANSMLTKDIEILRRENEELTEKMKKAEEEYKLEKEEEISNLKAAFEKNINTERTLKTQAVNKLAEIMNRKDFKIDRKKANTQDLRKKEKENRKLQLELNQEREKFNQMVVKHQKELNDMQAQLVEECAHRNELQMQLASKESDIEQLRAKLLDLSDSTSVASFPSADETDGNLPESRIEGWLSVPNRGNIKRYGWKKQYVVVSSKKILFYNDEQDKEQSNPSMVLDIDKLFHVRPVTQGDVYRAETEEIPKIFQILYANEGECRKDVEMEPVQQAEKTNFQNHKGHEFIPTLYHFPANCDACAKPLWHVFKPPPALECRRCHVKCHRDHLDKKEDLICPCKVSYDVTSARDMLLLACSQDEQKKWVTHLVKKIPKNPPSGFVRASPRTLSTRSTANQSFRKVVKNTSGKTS

inhibition [3]	inhibition [4]	inhibition [6]	inhibition [7]	inhibition [9]	inhibition [11]	inhibition [12]	inhibition [13]	inhibition [14]	inhibition [15]	inhibition [16]	inhibition [17]	inhibition [21]	inhibition [22]	inhibition [23]	inhibition [25]	inhibition [26]	inhibition [30]	inhibition [31]	SMILES	inhibition [5]	further results
6.02%	5.25%	13.9%	-7.14%	-0.51%	-7.05%	-4.56%	8.03%	6.03%	-3.57%	-7.72%	-7.82%								COCCNC(=O)c1ccc2c(c1)nc(-c1cnc(-c3ccc(Cl)cc3)[nH]1)n2CCOC	11.6%	inhibition [1]: -3.46%; inhibition [2]: -5.95%; inhibition [8]: 23.8%; inhibition [10]: -0.09%; inhibition [18]: 10.8%
33.7%	56.5%		15.9%		-4.48%			6.38%	-6.79%		39.8%	72.5%	-6.9%	19.4%	-1.37%	50%	19.6%	-1.4%	CS(=O)(=O)c1cccc(Nc2nccc(-c3sc(N4CCOCC4)nc3-c3cccc(NS(=O)(=O)c4c(F)cccc4F)c3)n2)c1		inhibition [19]: -7.87%; inhibition [20]: -4.6%; inhibition [24]: 80.9%; inhibition [27]: -6.51%; inhibition [28]: 92.8%; inhibition [29]: 49.7%; inhibition [32]: 26.6%; inhibition [33]: 11.2%
		24.7%		7.1%		-5.34%	5.52%			60.5%		22%	9.07%	1.14%	85%	15.5%	6.56%	54.2%	CC(C)(C)c1cc(NC(=O)Nc2ccc(Oc3ccncc3)cc2)no1	12.2%	inhibition [34]: -4.91%; inhibition [32]: 92.5%

Reference: ChEMBL document CHEMBL3627608, “Crystal structures of human RIP2 kinase catalytic domain complexed with ATP-competitive inhibitors: Foundations for understanding inhibitor selectivity” (Bioorg Med Chem, 2015)
